Measured values as given in ChEMBL document CHEMBL1131428, “Immunophilins: beyond immunosuppression” (J Med Chem, 1998).

Legend:
Mus musculus [1] = experiment: Compound was evaluated for the recovery of Striatal TH immunostaining in MPTP-treated mice by concurrent treatment after 4 mg/kg sc administration.; format: functional, organism-based; parameters: dose 4 mg/kg; conditions: at 4 mg/kg
Gallus gallus = organism: Gallus gallus; experiment: In Vitro neurotrophic effect was measured in cultured chick DRG sensory neurons.; format: functional; conditions: read-out: ED50 (the source's name)
[2] = biological target: Peptidyl-prolyl cis-trans isomerase FKBP1A (Homo sapiens, UniProt P62942); experiment: Compound was tested for its ability to inhibit FK506 binding protein 12 rotamase activity
Mus musculus [3] = experiment: Compound was evaluated for the recovery of Striatal TH immunostaining in MPTP-treated mice by concurrent treatment after 40 mg/kg sc administration.; format: functional, organism-based; parameters: dose 40 mg/kg; conditions: at 40 mg/kg
Rattus norvegicus [4] = organism: Rattus norvegicus; experiment: Compound was evaluated for the regrowth of Striatal dopamine neurons in 6HODA-lesioned rats at 7 days; format: functional, organism-based
Rattus norvegicus [5] = organism: Rattus norvegicus; experiment: Compound was evaluated for the regrowth of Striatal dopamine neurons in 6HODA-lesioned rats at 60 days; format: functional, organism-based
Rattus norvegicus [6] = organism: Rattus norvegicus; experiment: Compound was evaluated for the regrowth of Striatal dopamine neurons in 6HODA-lesioned rats at 1h.; format: functional, organism-based
Rattus norvegicus [7] = organism: Rattus norvegicus; experiment: Compound was evaluated for the regrowth of Striatal dopamine neurons in 6HODA-lesioned rats at 120 days; format: functional, organism-based
Rattus norvegicus [8] = organism: Rattus norvegicus; experiment: Compound was evaluated for the regrowth of Striatal dopamine neurons in 6HODA-lesioned rats at 28 days; format: functional, organism-based
Rattus norvegicus [9] = experiment: Mean axonal area to promote nerve regeneration in rats with lesioned sciatic nerves was measured after 5 mg/kg sc daily administration.; format: functional; conditions: route subcutaneous
Rattus norvegicus [10] = experiment: Axonal regeneration rate to promote nerve regeneration in rats with lesioned sciatic nerves was measured after 5 mg/kg sc daily administration.; format: functional; conditions: route subcutaneous
Rattus norvegicus [11] = experiment: Axonal regeneration rate to promote nerve regeneration in rats with lesioned sciatic nerves was measured after 10 mg/kg sc daily administration.; format: functional; conditions: route subcutaneous
Rattus norvegicus [12] = experiment: Mean axonal area to promote nerve regeneration in rats with lesioned sciatic nerves was measured after 10 mg/kg sc daily administration.; format: functional; conditions: route subcutaneous
Rattus norvegicus [13] = experiment: Mean axonal area to promote nerve regeneration in rats with lesioned sciatic nerves was measured after 1 mg/kg sc daily administration.; format: functional; conditions: route subcutaneous
Rattus norvegicus [14] = experiment: Mean axonal area to promote nerve regeneration in rats with lesioned sciatic nerves was measured after 2 mg/kg sc daily administration.; format: functional; conditions: route subcutaneous
Rattus norvegicus [15] = experiment: Axonal regeneration rate to promote nerve regeneration in rats with lesioned sciatic nerves was measured after 1 mg/kg sc daily administration.; format: functional; conditions: route subcutaneous

Chain of Peptidyl-prolyl cis-trans isomerase FKBP1A (P62942 whole entry): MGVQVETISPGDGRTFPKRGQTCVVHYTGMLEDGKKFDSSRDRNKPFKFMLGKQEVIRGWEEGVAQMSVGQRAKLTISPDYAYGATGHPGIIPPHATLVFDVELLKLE

O=C(OCCCCc1ccccc1)C1CCCCN1S(=O)(=O)Cc1ccccc1 (stereo not given)
Recovery (Mus musculus [1]): 38% | EC50 (Gallus gallus): 0.03 nM

O=C(C(=O)N1CCCCC1C(=O)OC(CCCc1ccccc1)CCCc1ccccn1)c1ccccc1 (stereo not given)
Ki [2]: 50 nM | EC50 (Gallus gallus): 0.063 nM

O=C(OCCCc1cccnc1)C1CCCN1C(=S)NC1C2CC3CC(C2)CC1C3 (stereo not given)
Recovery (Mus musculus [1]): 52.3% | Ki [2]: 116 nM | EC50 (Gallus gallus): 0.14 nM

CCC(C)(C)C(=O)C(=O)N1CCCCC1C(=O)OCCCC1CCCCC1 (stereo not given)
EC50 (Gallus gallus): 1 nM

CCC(C)(C)C(=O)C(=O)N1CCCCC1C(=O)OCCCc1cc(OC)c(OC)c(OC)c1 (stereo not given)
Ki [2]: 25 nM

CC[C@@H]1/C=C(/C)[C@@H](O)[C@@H](C)C[C@H](OC)[C@H]2O[C@@](O)(C(=O)C(=O)N3CCCC[C@H]3C(=O)O[C@H](/C(C)=C/[C@@H]3CC[C@@H](O)[C@H](OC)C3)[C@H](C)[C@@H](O)CC1=O)[C@H](C)C[C@@H]2OC
Ki [2]: 0.7 nM | EC50 (Gallus gallus): 5 nM

COc1ccc(CCCCOC(=O)C2CCCCN2C(=O)C(=O)c2cc(OC)c(OC)c(OC)c2)cc1 (stereo not given)
EC50 (Gallus gallus): 0.03 nM

CCC(C)(C)C(=O)C(=O)N1CCCC1C(=O)OCCCc1cccnc1 (stereo not given)
Recovery (Mus musculus [3]): 67.5% | Recovery (Rattus norvegicus [4]): 25.5% | Recovery (Rattus norvegicus [5]): 17.3% | Ki [2]: 7.5 nM | EC50 (Gallus gallus): 0.05 nM | Recovery (Rattus norvegicus [6]): 34.2% | Recovery (Rattus norvegicus [7]): 19.5% | Recovery (Rattus norvegicus [8]): 28.1%

C=CC[C@@H]1/C=C(\C)CC(C)C[C@H](OC)[C@H]2O[C@@](O)(C(=O)C(=O)N3CCCC[C@H]3C(=O)O[C@H](/C(C)=C/[C@@H]3CC[C@@H](O)[C@H](OC)C3)[C@H](C)[C@@H](O)CC1=O)[C@H](C)C[C@@H]2OC (single isomer, unassigned) [TACROLIMUS ANHYDROUS]
Mean axonal area (Rattus norvegicus [9]): 120 | Axonal regeneration rate (Rattus norvegicus [10]): 34 | Axonal regeneration rate (Rattus norvegicus [11]): 29 | Mean axonal area (Rattus norvegicus [12]): 100 | Mean axonal area (Rattus norvegicus [13]): 67 | EC50 (Gallus gallus): 0.5 nM | Mean axonal area (Rattus norvegicus [14]): 83 | Axonal regeneration rate (Rattus norvegicus [15]): 16

Cc1ccc(S(=O)(=O)N2CCCCC2C(=O)OC(CCCc2ccccc2)CCCc2ccccc2)cc1 (stereo not given)
Ki [2]: 332 nM | EC50 (Gallus gallus): 1 nM

CCC(C)CNC(=O)N1CCCCC1C(=O)OCCCc1cccnc1 (stereo not given)
Recovery (Mus musculus [1]): 27.5% | Ki [2]: 70 nM | EC50 (Gallus gallus): 0.07 nM

COc1ccc(CCCCOC(=O)C2CCCCN2C(=O)C(=O)C(C)(C)C)cc1 (stereo not given)
Recovery (Mus musculus [3]): 58.9% | Ki [2]: 24 nM

COC(=O)C(=O)N1CCCCC1C(=O)OCCCCC1CCCCC1 (stereo not given)
EC50 (Gallus gallus): > 10000 nM

CCC(C)(C)C(=O)C(=O)N1CCCCC1C(=O)OCCCc1cc(OC)ccc1OC (stereo not given)
Ki [2]: 12 nM | EC50 (Gallus gallus): 2.5 nM

CCOC(=O)C1CCCCN1C(=O)C(C)=O (stereo not given)
Ki [2]: > 10000 nM | EC50 (Gallus gallus): > 10000 nM

CC(C)(C)C(=O)C(=O)N1CCCCC1C(=O)OCCCC1CCCCC1 (stereo not given)
Ki [2]: 32 nM | EC50 (Gallus gallus): 0.29 nM

COC(=O)C(=O)N1CCCCC1C(=O)OCc1ccccc1 (stereo not given)
Ki [2]: 8000 nM | EC50 (Gallus gallus): > 10000 nM

O=C(OC(CCCc1ccccc1)Cc1ccccc1)C1CCCCN1S(=O)(=O)Cc1ccccc1 (stereo not given)
Ki [2]: 107 nM | EC50 (Gallus gallus): 0.133 nM

CCC(C)(C)C(=O)C(=O)N1CCCCC1C(=O)OCCCc1cccnc1 (stereo not given)
Ki [2]: 130 nM | EC50 (Gallus gallus): 8.5 nM

C/C=C/C[C@@H](C)[C@@H](O)[C@H]1C(=O)N[C@@H](CC)C(=O)N(C)CC(=O)N(C)[C@@H](CC(C)C)C(=O)N[C@@H](C(C)C)C(=O)N(C)[C@@H](C)C(=O)N[C@@H](C)C(=O)N[C@H](C)C(=O)N(C)[C@@H](CC(C)C)C(=O)N(C)[C@@H](CC(C)C)C(=O)N(C)[C@@H](C(C)C)C(=O)N1C
Ki [2]: 50 nM

O=C(C(=O)N1CCCCC1C(=O)OC(CCCc1ccccc1)CCCc1ccccc1)c1ccccc1 (stereo not given)
Ki [2]: 3 nM

CC(C)(C)C(=O)C(=O)N1CCCC1C(=O)OCCCc1cccnc1 (stereo not given)
Ki [2]: 3 nM

COC(=O)C(=O)N1CCCCC1C(=O)OCCCC1CCCCC1 (stereo not given)
EC50 (Gallus gallus): > 10000 nM

O=C(OCCCc1cccnc1)C1CCCN1C(=O)NC1CCCCC1 (stereo not given)
Recovery (Mus musculus [1]): 59.8% | Ki [2]: 1480 nM

CCC(C)(C)NC(=O)N1CCCC1C(=O)OCCCc1cccnc1 (stereo not given)
Ki [2]: 742 nM | EC50 (Gallus gallus): 1 nM

CCC(C)(C)C(=O)C(=O)N1CCCC1C(=O)OCCCc1ccccn1 (stereo not given)
Ki [2]: 195 nM | EC50 (Gallus gallus): 0.075 nM

CCC(C)(C)C(=O)C(=O)N1CCCC1C(=O)OCCCC1CCCCC1 (stereo not given)
Ki [2]: 194 nM | EC50 (Gallus gallus): 0.257 nM

O=C(C(=O)N1CCCC1C(=O)OCCCc1cccnc1)C1CCCCC1 (stereo not given)
EC50 (Gallus gallus): 2 nM

O=C(OCCCc1cccnc1)C1CCCN1C(=S)NC1CCCCC1 (stereo not given)
Recovery (Mus musculus [1]): 56.1% | Ki [2]: 131 nM | EC50 (Gallus gallus): 0.3 nM

CO[C@H]1C[C@@H]2CC[C@@H](C)[C@@](O)(O2)C(=O)C(=O)N2CCCC[C@H]2C(=O)O[C@H]([C@H](C)C[C@@H]2CC[C@@H](O)[C@H](OC)C2)CC(=O)[C@H](C)/C=C(\C)[C@@H](O)[C@@H](OC)C(=O)[C@H](C)C[C@H](C)/C=C/C=C/C=C/1C [SIROLIMUS]
EC50 (Gallus gallus): 0.5 nM
